Experimental findings from patent publication US11110082B2, “Tyrosine kinase inhibitors” (Rigel Pharmaceuticals, Inc., priority 2016, dated 2021) are described below.

This experiment addresses T1, MerTK (Homo sapiens, UniProt Q12866).
T1 construct: Seed HUVECs (10K cells/well) in EBM-2 complete media; host or cells: HUVEC (primary human umbilical vein endothelial cells)
T1 sequence (Q12866 21-999): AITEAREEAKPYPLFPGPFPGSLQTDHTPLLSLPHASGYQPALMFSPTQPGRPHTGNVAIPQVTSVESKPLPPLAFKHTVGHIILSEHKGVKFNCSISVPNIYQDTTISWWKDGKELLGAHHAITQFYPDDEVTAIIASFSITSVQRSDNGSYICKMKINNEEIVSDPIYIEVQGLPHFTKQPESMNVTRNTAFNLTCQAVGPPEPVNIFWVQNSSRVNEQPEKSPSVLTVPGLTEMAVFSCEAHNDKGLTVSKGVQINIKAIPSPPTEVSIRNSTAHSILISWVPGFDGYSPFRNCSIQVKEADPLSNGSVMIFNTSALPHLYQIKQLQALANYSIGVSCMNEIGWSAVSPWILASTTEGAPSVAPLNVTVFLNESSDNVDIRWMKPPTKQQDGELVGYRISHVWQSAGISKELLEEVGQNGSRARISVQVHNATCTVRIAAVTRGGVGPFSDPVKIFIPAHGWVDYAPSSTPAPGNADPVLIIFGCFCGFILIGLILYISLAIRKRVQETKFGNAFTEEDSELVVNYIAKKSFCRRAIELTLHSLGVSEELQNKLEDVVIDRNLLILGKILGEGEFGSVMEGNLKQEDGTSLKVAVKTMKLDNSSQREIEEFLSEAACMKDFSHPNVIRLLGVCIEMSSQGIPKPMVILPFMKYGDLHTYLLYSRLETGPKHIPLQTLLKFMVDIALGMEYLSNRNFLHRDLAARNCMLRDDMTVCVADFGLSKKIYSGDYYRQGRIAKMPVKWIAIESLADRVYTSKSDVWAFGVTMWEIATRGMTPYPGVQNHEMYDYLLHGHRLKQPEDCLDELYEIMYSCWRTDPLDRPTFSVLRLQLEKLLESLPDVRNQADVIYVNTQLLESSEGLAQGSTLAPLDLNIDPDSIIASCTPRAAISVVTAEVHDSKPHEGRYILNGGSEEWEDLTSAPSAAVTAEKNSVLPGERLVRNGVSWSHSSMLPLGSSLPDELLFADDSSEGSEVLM
Briefly: PAKT HTRF-HUVEC assay (pAkt Ser473 HTRF after anti-human MerTK-XL stimulation). It is filed as cell-based. The conditions noted are these: HUVEC cells, 1 hour compound, stimulated with anti-human MerTK-XL 1 ug/mL for 10 minutes, read-out: inhibition of MerTK. As for the experimental part:
Example 4: PAKT HTRF-HUVEC Assay Phospho Akt (Ser473) Assay kit-10,000 tests (Cisbio US, 64[…]) HUVEC cells (Lonza, CC-2519) Anti-human MerTK antibody (Clone 125518) (R&D Systems, MAB8912) Method Seed HUVECs (10K cells/well) in EBM-2 complete media (EBM-2 basal medium plus EGM-2 BulletKit supplements) overnight at 37° C., 5% CO2 in Costar 96-well white clear-bottom plates. Remove culture media and starve cells for 3-4 hours in 50 μL/well EBM-2 basal medium. Perform serial dilution of compounds in DMSO from 2.5 mM in 4-fold dilutions, and then dilute 1:125 in EBM-2 basal media. Mix 50 μL/well 2x compounds with 50 μL/well HUVECs in duplicate in Costar 96-well white clear-bottom plates. Incubate plates for 1 hour at 37° C., 5% CO2. Cross-link anti-human MerTK antibody to Biotin-SP-conjugated anti-mouse IgG antibody (1:1) to give final concentrations of 5 ug/mL of anti-human MerTK-XL. Stimulate HUVECs with 25 μL/well 5x anti-human MerTK-XL to give final concentrations of 1 ug/mL for 10 minutes at 37° C., 5% CO2. Completely remove media and lyse HUVECs with 40 uL/WELL per well of Cisbio HTRF 1× lysis buffer. Performed pAkt(Ser473) HTRF assay in ProxiPlate-384 Plus, white 384-shallow well microplate according to the vendor protocol and read plates with a SpectralMax Paradigm plate reader. Enter the HTRF values into Athena (Rigel) for curve fitting, EC50 calculation, and database storage.
In general terms: In TR-FRET formats the signal depends on donor and acceptor labels being close together.
Consider `CCOC(=O)C1CCN(Cc2ccc3c(c2)c(=O)n([C@H]2CC[C@H](O)CC2)c2nc(NCC4CC4)ncc32)CC1` [Compound 50, trans-Ethyl 1-((3-((Cyclopropylmethyl)amino)-5-(4-hydroxycyclohexyl)-6-oxo-5,6-dihydropyrimido[4,5-c]isoquinolin-8-yl)methyl)piperidine-4-carboxylate], for which the EC50 was 25.9 nM. With `O=c1c2cc(CN3CC[S+]([O-])CC3)ccc2c2cnc(NCC3CC3)nc2n1[C@H]1CC[C@H](O)CC1` [Compound 52, trans-3-((cyclopropylmethyl)amino)-5-(4-hydroxycyclohexyl)-8-((1-oxidothiomorpholino)methyl) pyrimido[4,5-c]isoquinolin-6(5H)-one] the figure was 401 nM. The value for `O=c1c2cc(CN3CCSCC3)ccc2c2cnc(NCC3CC3)nc2n1[C@H]1CC[C@H](O)CC1` [Compound 53, trans-3-((Cyclopropylmethyl)amino)-5-(4-hydroxycyclohexyl)-8-(thiomorpholinomethyl)pyrimido [4,5-c]isoquinolin-6(5H)-one] was 36.3 nM. Take `O=c1c2cc(CN3CCNCC3)ccc2c2cnc(NCC3CC3)nc2n1[C@H]1CC[C@H](O)CC1` [Compound 54, trans-3-((Cyclopropylmethyl)amino)-5-(4-hydroxycyclohexyl)-8-(piperazin-1-ylmethyl)pyrimido[4,5-c]isoquinolin-6(5H)-one]: the EC50 turned out to be 309 nM. In the case of `CC(C)CNc1ncc2c3ccc(CN4CCN(C)CC4)cc3c(=O)n([C@H]3CC[C@H](O)CC3)c2n1` [Compound 56, trans-5-(4-Hydroxycyclohexyl)-3-(isobutylamino)-8-((4-methylpiperazin-1-yl)methyl)pyrimido[4,5-c]isoquinolin-6(5H)-one], the EC50 came out at 51.2 nM. As to `O=c1c2cc(CN3CCN4CCC3CC4)ccc2c2cnc(NCC3CC3)nc2n1[C@H]1CC[C@H](O)CC1` [Compound 58, trans-8-((1,4-Diazabicyclo[3.2.2]nonan-4-yl)methyl)-3-((cyclopropylmethyl)amino)-5-(4-hydroxycyclohexyl)pyrimido [4,5-c]isoquinolin-6(5H)-one], the EC50 was found to be 115 nM. The value for `CN1CCN(Cc2ccc3c(c2)c(=O)n([C@H]2CC[C@H](OC(N)=O)CC2)c2nc(NCC4CC4)ncc32)CC1` [Compound 59, trans-4-(3-((Cyclopropylmethyl)amino)-8-((4-methylpiperazin-1-yl)methyl)-6-oxopyrimido[4,5-c]isoquinolin-5(6H)-yl)cyclohexyl carbamate] was 292 nM; that for `CC(C)(C)N1CCN(Cc2ccc3c(c2)c(=O)n([C@H]2CC[C@H](O)CC2)c2nc(NCC4CC4)ncc32)CC1` [Compound 60, trans-8-((4-(tert-butyl)piperazin-1-yl)methyl)-3-((cyclopropylmethyl)amino)-5-(4-hydroxycyclohexyl)pyrimido [4,5-c]isoquinolin-6(5H)-one] was 4.2 nM; that for `CCCCNc1ncc2c3ccc(N4CCN(C)CC4)cc3c(=O)n([C@H]3CC[C@H](O)CC3)c2n1` [Compound 61, trans-3-(Butylamino)-5-(4-hydroxycyclohexyl)-8-(4-methylpiperazin-1-yl)pyrimido[4,5-c]isoquinolin-6(5H)-one] was 23.1 nM.

Consider `CCCCNc1ncc2c3ccc(N4CCOCC4)cc3c(=O)n([C@H]3CC[C@H](O)CC3)c2n1` [Compound 62, trans-3-(Butylamino)-5-(4-hydroxycyclohexyl)-8-morpholinopyrimido[4,5-c]isoquinolin-6(5H)-one], for which the EC50 was 95.2 nM. The value for `CCCCNc1ncc2c3ccc(N4CCN(C)CC4)cc3c(=O)n([C@H]3CC[C@@H](O)CC3)c2n1` [Compound 63, cis-3-(Butylamino)-5-(4-hydroxycyclohexyl)-8-(4-methylpiperazin-1-yl)pyrimido[4,5-c]isoquinolin-6(5H)-one] was 138 nM. The value for `CCCCNc1ncc2c3ccc(N4CCN(C)CC4)cc3c(=O)n(CC3CCC(N)CC3)c2n1` (stereo not drawn) [Compound 65, 5-((4-Aminocyclohexyl)methyl)-3-(butylamino)-8-(4-methylpiperazin-1-yl)pyrimido[4,5-c]isoquinolin-6(5H)-one] was 78.3 nM; that for `CN1CC2(C1)CN(c1ccc3c(c1)c(=O)n([C@H]1CC[C@H](O)CC1)c1nc(NC4CC(F)(F)C4)ncc31)C2` [Compound 66, trans-3-((3,3-Difluorocyclobutyl)amino)-5-(4-hydroxycyclohexyl)-8-(6-methyl-2,6-diazaspiro[3.3]heptan-2-yl)pyrimido[4,5-c]isoquinolin-6(5H)-one] was 298 nM; that for `O=c1c2cc(N3CC4(COC4)C3)ccc2c2cnc(NC3CC(F)(F)C3)nc2n1[C@H]1CC[C@H](O)CC1` [Compound 67, trans-3-((3,3-difluorocyclobutyl)amino)-5-(4-hydroxycyclohexyl)-8-(2-oxa-6-azaspiro[3.3]heptan-6-yl)pyrimido[4,5-c]isoquinolin-6(5H)-one] was 8030 nM. As to `CCCCNc1ncc2c3ccc(N4CC5(COC5)C4)cc3c(=O)n([C@H]3CC[C@H](O)CC3)c2n1` [Compound 68, trans-3-(Butylamino)-5-(4-hydroxycyclohexyl)-8-(2-oxa-6-azaspiro[3.3]heptan-6-yl)pyrimido[4,5-c]isoquinolin-6(5H)-one], the EC50 was 78.4 nM. The value for `CCCCNc1ncc2c3ccc(N4CCN(C(C)C)CC4)cc3c(=O)n([C@H]3CC[C@H](O)CC3)c2n1` [Compound 69, trans-3-(Butylamino)-5-(4-hydroxycyclohexyl)-8-(4-isopropylpiperazin-1-yl)pyrimido[4,5-c]isoquinolin-6(5H)-one] was 20.4 nM; that for `CCCCNc1ncc2c3ccc(N4CCN(C(C)C)CC4)cc3c(=O)n(C3CCC(=O)CC3)c2n1` [Compound 70, 3-(Butylamino)-8-(4-isopropylpiperazin-1-yl)-5-(4-oxocyclohexyl)pyrimido[4,5-c]isoquinolin-6(5H)-one] was 184 nM; that for `CCCCNc1ncc2c3ccc(N4CCC(N5CCCC5)CC4)cc3c(=O)n([C@H]3CC[C@H](O)CC3)c2n1` [Compound 71, trans-3-(Butylamino)-5-(4-hydroxycyclohexyl)-8-(4-(pyrrolidin-1-yl)piperidin-1-yl)pyrimido[4,5-c]isoquinolin-6(5H)-one] was 33.4 nM.

With `CCCCNc1ncc2c3ccc(N4CCC(N5CCCC5)CC4)cc3c(=O)n(C3CCC(=O)CC3)c2n1` [Compound 72, 3-(Butylamino)-5-(4-oxocyclohexyl)-8-(4-(pyrrolidin-1-yl)piperidin-1-yl)pyrimido[4,5-c]isoquinolin-6(5H)-one], the EC50 amounted to 220 nM. With `CCCCNc1ncc2c3ccc(N4CCN5CCC[C@H]5C4)cc3c(=O)n([C@H]3CC[C@H](O)CC3)c2n1` [Compound 73, trans-3-(Butylamino)-8-((S)-hexahydropyrrolo[1,2-a]pyrazin-2(1H)-yl)-5-((1r,4S)-4-hydroxycyclohexyl)pyrimido [4,5-c]isoquinolin-6(5H)-one] the figure was 21 nM; with `CN1CC2(C1)CN(c1ccc3c(c1)c(=O)n([C@H]1CC[C@H](O)CC1)c1nc(NC4CC(F)C4)ncc31)C2` (stereo partly drawn) [Compound 74, trans-3-((3-Fluorocyclobutyl)amino)-5-(4-hydroxycyclohexyl)-8-(6-methyl-2,6-diazaspiro[3.3]heptan-2-yl)pyrimido[4,5-c]isoquinolin-6(5H)-one], 218 nM.
